Target: T1, Glutamate carboxypeptidase 2 [44-750] (Homo sapiens, UniProt Q04609)
T1 construct: 44-750
Test: IC50 Assay
Settings: pH 7.4; 37 °C
Protocol: Inhibitors were made in TRIS buffer (50mM Tris pH 7.4 containing 1% Triton X-100). Working solutions of purified GCPII (50ug/mL) were diluted in TRIS buffer to provide from 15% to 20% conversion of substrate to product in the absence of inhibitor. The incubation mixture (final volume 250μL) contained either 25μL of an inhibitor solution or 25μL TRIS buffer to 175μ TRIS buffer in a test tube, followed by the addition of PABGgG (25μL, […]). The enzymatic reaction was initiated by the addition of 25μL of the GCPII working solution and allowed to proceed for 15min with constant shaking at 37°C. The reaction was quenched by the addition of 25μL methanolic TFA (2% trifluoroacetic acid by volume in methanol) followed by vortexing. The quenched mixture was immediately buffered by the addition of 25μL K2HPO4 (0.1M), vortexed, and centrifuged.

T1 sequence (Q04609 44-750): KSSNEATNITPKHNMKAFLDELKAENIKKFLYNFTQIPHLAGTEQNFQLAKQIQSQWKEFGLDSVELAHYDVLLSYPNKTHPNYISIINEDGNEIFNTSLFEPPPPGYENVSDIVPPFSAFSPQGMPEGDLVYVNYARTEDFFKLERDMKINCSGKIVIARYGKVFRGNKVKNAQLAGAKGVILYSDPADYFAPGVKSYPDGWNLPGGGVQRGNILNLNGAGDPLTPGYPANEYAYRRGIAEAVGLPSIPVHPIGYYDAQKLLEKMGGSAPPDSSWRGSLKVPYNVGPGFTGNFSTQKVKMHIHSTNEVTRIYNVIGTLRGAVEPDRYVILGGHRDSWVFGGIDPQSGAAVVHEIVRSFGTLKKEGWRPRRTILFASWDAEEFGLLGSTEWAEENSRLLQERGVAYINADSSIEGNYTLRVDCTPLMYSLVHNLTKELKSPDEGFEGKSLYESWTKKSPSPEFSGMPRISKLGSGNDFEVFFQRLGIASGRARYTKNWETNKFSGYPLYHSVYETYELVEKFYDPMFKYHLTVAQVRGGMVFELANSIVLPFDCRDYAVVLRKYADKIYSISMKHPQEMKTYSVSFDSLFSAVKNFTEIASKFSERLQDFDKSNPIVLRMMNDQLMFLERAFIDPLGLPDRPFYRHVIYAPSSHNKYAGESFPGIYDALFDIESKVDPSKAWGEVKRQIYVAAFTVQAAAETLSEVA

IC50: > 100 µM
Compound: O=C(O)CC[C@H](NS(=O)(=O)NC[C@H](NC(=O)c1ccccc1)C(=O)O)C(=O)O [(S)-2-((N-((S)-2-benzamido-2-carboxyethyl)sulfamoyl)amino)pentanedioic acid (2b)]

Reference: BindingDB's records for doi:10.1111/cbdd.12174 (Washington State University At Pullman, 2013)
